Assays:
[1] = target: Estrogen receptor beta (Homo sapiens, UniProt Q92731)
Description: Binding affinity for human Estrogen receptor beta

[2] = target: T1, Estrogen receptor (Homo sapiens, UniProt P03372)
T1 sequence (P03372 whole entry): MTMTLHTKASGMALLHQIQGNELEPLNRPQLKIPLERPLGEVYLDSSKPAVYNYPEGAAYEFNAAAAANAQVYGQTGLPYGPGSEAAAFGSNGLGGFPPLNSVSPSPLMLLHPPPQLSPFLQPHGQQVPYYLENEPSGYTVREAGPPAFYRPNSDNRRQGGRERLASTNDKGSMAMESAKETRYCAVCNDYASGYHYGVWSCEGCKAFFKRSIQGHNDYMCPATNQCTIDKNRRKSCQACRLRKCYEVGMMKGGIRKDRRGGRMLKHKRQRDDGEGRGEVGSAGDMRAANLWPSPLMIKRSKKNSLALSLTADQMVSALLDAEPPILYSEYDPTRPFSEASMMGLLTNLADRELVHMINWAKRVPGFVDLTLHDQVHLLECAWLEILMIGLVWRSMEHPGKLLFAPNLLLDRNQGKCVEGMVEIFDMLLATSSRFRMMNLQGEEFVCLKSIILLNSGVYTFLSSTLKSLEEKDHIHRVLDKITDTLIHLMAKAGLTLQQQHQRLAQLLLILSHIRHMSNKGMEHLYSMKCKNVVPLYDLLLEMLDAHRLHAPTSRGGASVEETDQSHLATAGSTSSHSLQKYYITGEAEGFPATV
Description: Binding affinity for human Estrogen receptor alpha

Estrogen receptor beta, sequence (Q92731 whole entry): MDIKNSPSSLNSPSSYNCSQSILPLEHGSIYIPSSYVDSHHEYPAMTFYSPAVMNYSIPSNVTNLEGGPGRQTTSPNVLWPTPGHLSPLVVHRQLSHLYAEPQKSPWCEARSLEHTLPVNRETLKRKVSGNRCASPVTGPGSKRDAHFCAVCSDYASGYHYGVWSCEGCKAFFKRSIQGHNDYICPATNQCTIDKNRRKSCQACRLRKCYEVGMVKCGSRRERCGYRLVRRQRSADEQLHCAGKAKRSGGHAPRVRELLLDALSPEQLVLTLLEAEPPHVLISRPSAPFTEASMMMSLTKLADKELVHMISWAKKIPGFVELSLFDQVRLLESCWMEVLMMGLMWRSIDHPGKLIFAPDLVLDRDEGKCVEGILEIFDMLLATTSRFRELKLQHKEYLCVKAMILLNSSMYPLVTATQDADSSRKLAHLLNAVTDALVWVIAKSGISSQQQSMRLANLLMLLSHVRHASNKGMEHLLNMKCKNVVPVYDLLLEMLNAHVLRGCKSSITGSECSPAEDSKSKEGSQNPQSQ

| IC50 [1] [nM] | IC50 [2] [nM] | SMILES |
| --- | --- | --- |
| 30 | 632 | Oc1ccc(-c2ccc3c(Cl)c(O)ccc3n2)cc1 |
| > 5000 | > 5000 | CC(O)c1cc(-c2ccc(O)c(F)c2)nc2ccc(O)cc12 (stereo not drawn) |
| 88 | 1140 | Oc1ccc(-c2ccc3c(Br)c(O)ccc3n2)cc1 |
| 211 | 1810 | Oc1ccc2nc(-c3ccc(O)c(F)c3)cc(-c3ccccc3)c2c1 |
| 44 | 385 | C=Cc1cc(-c2ccc(O)c(F)c2)nc2ccc(O)cc12 |
| 221 | 3140 | CC(=O)c1cc(-c2ccc(O)cc2)nc2ccc(O)cc12 |
| 36 | 783 | Oc1ccc2nc(-c3cc(F)c(O)c(F)c3)cc(Br)c2c1 |
| 27 | 1310 | C#Cc1cc(-c2ccc(O)c(F)c2)nc2ccc(O)cc12 |
| 52 | 634 | CCc1cc(-c2ccc(O)cc2)nc2ccc(O)cc12 |
| 79 | 1750 | CCc1cc(-c2ccc(O)c(F)c2)nc2ccc(O)cc12 |
| 75 |  | C#Cc1cc(-c2ccc(O)cc2)nc2ccc(O)cc12 |
| 171 | 1780 | Oc1ccc(-c2ccc3cc(O)ccc3n2)cc1 |

Reference: ChEMBL document CHEMBL1140390, “ERbeta ligands. Part 4: Synthesis and structure-activity relationships of a series of 2-phenylquinoline derivatives” (Bioorg Med Chem Lett, 2005)
